Experiment [1] concerns most sensitive cancer cell line. As to the kind of experiment: cell activity: CTG anti-proliferation in most sensitive cancer cell line. In kind it is cell-based. The following applies: APA analogs.
Another experiment deals with T1, LKB1 (Homo sapiens, UniProt Q15831+Q7RTN6).
T1 sequence (Q15831 1-433): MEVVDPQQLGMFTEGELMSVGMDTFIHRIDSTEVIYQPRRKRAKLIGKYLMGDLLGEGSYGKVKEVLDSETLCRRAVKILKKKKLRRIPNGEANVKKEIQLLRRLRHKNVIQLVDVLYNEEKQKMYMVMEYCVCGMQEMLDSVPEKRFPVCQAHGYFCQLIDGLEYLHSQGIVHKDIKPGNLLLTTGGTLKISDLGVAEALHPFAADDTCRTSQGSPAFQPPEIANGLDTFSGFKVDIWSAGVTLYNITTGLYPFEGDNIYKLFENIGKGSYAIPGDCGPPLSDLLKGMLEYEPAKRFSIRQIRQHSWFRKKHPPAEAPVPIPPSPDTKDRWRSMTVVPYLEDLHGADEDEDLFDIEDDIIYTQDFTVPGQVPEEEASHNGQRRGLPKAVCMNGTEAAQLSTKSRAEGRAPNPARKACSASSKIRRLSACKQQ
T1 sequence (Q7RTN6 1-431): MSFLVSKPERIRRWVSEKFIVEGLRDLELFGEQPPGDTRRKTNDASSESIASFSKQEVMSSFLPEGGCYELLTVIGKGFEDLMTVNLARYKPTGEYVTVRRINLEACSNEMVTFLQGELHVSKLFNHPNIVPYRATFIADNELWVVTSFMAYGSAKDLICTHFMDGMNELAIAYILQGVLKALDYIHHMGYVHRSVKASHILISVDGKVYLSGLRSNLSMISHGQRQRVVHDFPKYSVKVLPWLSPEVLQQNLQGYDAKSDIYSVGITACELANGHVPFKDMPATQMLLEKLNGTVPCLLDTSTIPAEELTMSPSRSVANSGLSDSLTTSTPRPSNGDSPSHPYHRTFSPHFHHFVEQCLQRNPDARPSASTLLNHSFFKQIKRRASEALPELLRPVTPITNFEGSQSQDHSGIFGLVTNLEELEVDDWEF
T1 sequence (Q9Y376 1-341 partner): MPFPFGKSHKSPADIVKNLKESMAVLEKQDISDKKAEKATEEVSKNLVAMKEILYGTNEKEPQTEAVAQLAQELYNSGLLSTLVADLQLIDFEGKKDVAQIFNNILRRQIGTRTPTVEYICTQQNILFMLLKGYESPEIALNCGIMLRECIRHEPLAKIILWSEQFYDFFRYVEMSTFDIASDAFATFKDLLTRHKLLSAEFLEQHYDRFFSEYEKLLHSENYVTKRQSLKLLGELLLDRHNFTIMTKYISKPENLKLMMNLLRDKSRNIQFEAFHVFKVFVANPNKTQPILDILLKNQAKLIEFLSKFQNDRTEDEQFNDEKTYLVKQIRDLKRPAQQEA
As to the kind of experiment: in vitro LKB1 functional activity. In kind it is biochemical. The following applies: APA analogs.

By IC50 is commonly meant the concentration that gives 50% inhibition. `CC(=O)NS(=O)(=O)c1ccc(NC(=O)c2nc(-c3cc(F)ccc3C#N)cnc2N)cc1` [SU20668-0371, N-(4-(N-acetylsulfamoyl)phenyl)-3-amino-6-(2-cyano-5-fluorophenyl)pyrazine-2-carboxamide] registered an IC50 in experiment [1] of 3000 to 50000 nM. Besides, on LKB1, the “LKB1 % Act. Increase” value is recorded as “A (A=>4000%)”.
In turn, `COP(=O)(CS(=O)(=O)c1ccc(NC(=O)c2nc(-c3ccc(C)cc3)cnc2N)cc1)OC` [SU20668-0329, dimethyl (4-(3-amino-6-p-tolylpyrazine-2-carboxamido)phenylsulfonyl)methylphosphonate] registered an IC50 in experiment [1] of less than 3000 nM. For the same compound, the “LKB1 % Act. Increase” value on LKB1 is reported as “A (A=>4000%)”.
Regarding `CCOP(=O)(CC)CS(=O)(=O)c1ccc(NC(=O)c2nc(-c3ccc(C)cc3)cnc2N)cc1` (stereo not drawn) [SU20668-0515, ethyl (4-(3-amino-6-p-tolylpyrazine-2-carboxamido)phenylsulfonyl)methyl(ethyl)phosphinate], in experiment [1], the IC50 is less than 3000 nM. At LKB1, the “LKB1 % Act. Increase” value is “B (B=399-2000%)”.
The compound `CCO[P@@](=O)(CC)CS(=O)(=O)c1ccc(NC(=O)c2nc(-c3ccc(C)cc3)cnc2N)cc1` [SU20668-0522, (S)-ethyl (4-(3-amino-6-p-tolylpyrazine-2-carboxamido)phenylsulfonyl)methyl(ethyl)phosphinate] came in with a concentration for half-maximal inhibition (IC50) in experiment [1] of less than 3000 nM. Further, the “LKB1 % Act. Increase” value on LKB1 was “B (B=399-2000%)”.
As to `CC(=O)N[S@SP3](=O)(=O)c1ccc(NC(=O)c2nc(-c3ccc(C)cc3)cnc2N)cc1` [SU20668-0314, N-(4-(N-acetylsulfamoyl)phenyl)-3-amino-6-p-tolylpyrazine-2-carboxamide], the IC50 in experiment [1] lay in the range of 3000 to 50000 nM. Further, the “LKB1 % Act. Increase” value at LKB1 is “C (C=199-1000%)”.
In the case of `CCOP(=O)(OCC)C(F)S(=O)(=O)c1ccc(NC(=O)c2nc(-c3ccc(C)cc3)cnc2N)cc1` (stereo not drawn) [SU20668-0485], in experiment [1], the IC50 was less than 3000 nM.
For the compound `CCOP(=O)(C[S@SP3](=O)(=O)c1ccc(NC(=O)c2nc(-c3ccc(C)cc3)cnc2N)cc1)OCC` [SU20668-0313, diethyl (((4-(3-amino-6-(p-tolyl)pyrazine-2-carboxamido)phenyl)sulfonyl)methyl)phosphonate], the IC50 in experiment [1] is less than 3000 nM. Further, at LKB1, the “LKB1 % Act. Increase” value is given as “C (C=199-1000%)”.
In the same order, the values of `Cc1ccc(-c2cnc(N)c(C(=O)Nc3ccc(S(=O)(=O)CC4COC4)cc3)n2)cc1` [SU20668-0494, 3-amino-N-(4-(oxetan-3-ylmethylsulfonyl)phenyl)-6-p-tolylpyrazine-2-carboxamide] are less than 3000 nM and “A (A=>4000%)”.
`CO[P@@](C)(=O)CS(=O)(=O)c1ccc(NC(=O)c2nc(-c3ccc(C)cc3)cnc2N)cc1` [SU20668-0519, (R)-methyl (4-(3-amino-6-p-tolylpyrazine-2-carboxamido)phenylsulfonyl)methyl(methyl)phosphinate] came in with an IC50 in experiment [1] of less than 3000 nM. Besides, the “LKB1 % Act. Increase” value on LKB1 was “A (A=>4000%)”.
As for `Cc1ccc(-c2cnc(N)c(C(=O)Nc3ccc(S(N)(=O)=O)cc3)n2)cc1` [SU20668-0197, 3-amino-N-(4-sulfamoylphenyl)-6-p-tolylpyrazine-2-carboxamide], in experiment [1], the concentration for half-maximal inhibition (IC50) is less than 3000 nM. Also, the “LKB1 % Act. Increase” value at LKB1 is recorded as “B (B=399-2000%)”.
For `CCOP(C)(=O)CS(=O)(=O)c1ccc(NC(=O)c2nc(-c3ccc(C)cc3)cnc2N)cc1` (stereo not drawn) [SU20668-0472, ethyl (4-(3-amino-6-p-tolylpyrazine-2-carboxamido)phenylsulfonyl)methyl(methyl)phosphinate], in that order: less than 3000 nM and “A (A=>4000%)”.
In the case of `CS(=O)(=O)c1ccc(-c2cnc(N)c(C(=O)Nc3ccc(S(N)(=O)=O)cc3)n2)cc1` [SU20668-0309, 3-amino-6-(4-(methylsulfonyl)phenyl)-N-(4-sulfamoylphenyl)pyrazine-2-carboxamide], on LKB1, the “LKB1 % Act. Increase” value is reported as “C (C=199-1000%)”.
On the same count and under the same terms, the same measure for `CCP(=O)(CS(=O)(=O)c1ccc(NC(=O)c2nc(-c3ccc(C)cc3)cnc2N)cc1)OC` (stereo not drawn) [SU20668-0514, methyl (4-(3-amino-6-p-tolylpyrazine-2-carboxamido)phenylsulfonyl)methyl(ethyl)phosphinate]: “B (B=399-2000%)”.
Still for that read-out and setting: then `Cc1ccc(-c2cnc(N)c(C(=O)Nc3ccc(C(=O)NS(C)(=O)=O)cc3)n2)cc1` [SU20668-0478, 3-amino-N-(4-(methylsulfonylcarbamoyl)phenyl)-6-p-tolylpyrazine-2-carboxamide], with “D (D=<1000%)”.
As for `Cc1ccc(-c2cnc(N)c(C(=O)Nc3ccc(S(=O)(=O)NC4COC4)cc3)n2)cc1` [SU20668-0468, 3-amino-N-(4-(N-oxetan-3-ylsulfamoyl)phenyl)-6-p-tolylpyrazine-2-carboxamide], the IC50 in experiment [1] was less than 3000 nM. On LKB1, the “LKB1 % Act. Increase” value is “C (C=199-1000%)”.
On to `Cc1ccc(-c2cnc(N)c(C(=O)Nc3ccc(S(C)(=O)=O)cc3)n2)cc1` [SU20668-0293, 3-amino-N-(4-(methylsulfonyl)phenyl)-6-p-tolylpyrazine-2-carboxamide], for which the “LKB1 % Act. Increase” value on LKB1 was “C (C=199-1000%)”.
Same read-out and setting: the same measure for `CC(=O)NS(=O)(=O)c1ccc(NC(=O)c2nc(-c3ccc(CO)cc3)cnc2N)cc1` [SU20668-0348, N-(4-(N-acetylsulfamoyl)phenyl)-3-amino-6-(4-(hydroxymethyl)phenyl)pyrazine-2-carboxamide]: “C (C=199-1000%)”; for `CC(=O)NS(=O)(=O)c1ccc(NC(=O)c2nc(-c3cc[nH]n3)cnc2N)cc1` [SU20668-0352, N-(4-(N-acetylsulfamoyl)phenyl)-3-amino-6-(1H-pyrazol-3-yl)pyrazine-2-carboxamide]: “C (C=199-1000%)”.
The same measure, in the same setting: the same measure for `COP(=O)(CS(=O)(=O)c1ccc(NC(=O)c2nc(-c3ccc(C)s3)cnc2N)cc1)OC` [SU20668-0448, dimethyl (4-(3-amino-6-(5-methylthiophen-2-yl)pyrazine-2-carboxamido)phenylsulfonyl)methylphosphonate]: “C (C=199-1000%)”.
In the case of `CC(=O)NS(=O)(=O)c1ccc(NC(=O)c2nc(-c3ccc(C)cc3)cnc2N)cc1F` [SU20668-0483], the “LKB1 % Act. Increase” value at LKB1 was “D (D=<1000%)”.
With `Cc1ccc(-c2cnc(N)c(C(=O)Nc3cnc(S(C)(=O)=O)nc3)n2)cc1` [SU20668-0303, 3-amino-N-(2-(methylsulfonyl)pyrimidin-5-yl)-6-p-tolylpyrazine-2-carboxamide], on LKB1, the “LKB1 % Act. Increase” value is on record as “D (D=<1000%)”.
For `CCS(=O)(=O)c1cccc(-c2cnc(N)c(C(=O)Nc3ccc(S(=O)(=O)NC(C)=O)cc3)n2)c1` [SU20668-0373, N-(4-(N-acetylsulfamoyl)phenyl)-3-amino-6-(3-(ethylsulfonyl)phenyl)pyrazine-2-carboxamide], the “LKB1 % Act. Increase” value at LKB1 was “C (C=199-1000%)”.
On the same count and under the same terms, the same measure for `CCO[P@](C)(=O)CS(=O)(=O)c1ccc(NC(=O)c2nc(-c3ccc(C)cc3)cnc2N)cc1` [SU20668-0518, (S)-ethyl (4-(3-amino-6-p-tolylpyrazine-2-carboxamido)phenylsulfonyl)methyl(methyl)phosphinate]: “B (B=399-2000%)”; for `Cc1ccc(-c2cnc(N)c(C(=O)Nc3ccc(S(=O)(=O)C(F)(F)F)cc3)n2)cc1` [SU20668-0292, 3-amino-6-p-tolyl-N-(4-(trifluoromethylsulfonyl)phenyl)pyrazine-2-carboxamide]: “D (D=<1000%)”; for `Cc1ccc(-c2cnc(N)c(C(=O)Nc3ccc(S(=O)(=O)NC4(C)COC4)cc3)n2)cc1` [SU20668-0510, 3-amino-N-(4-(N-(3-methyloxetan-3-yl)sulfamoyl)phenyl)-6-p-tolylpyrazine-2-carboxamide]: “B (B=399-2000%)”.
Still for that read-out and setting: the same measure for `CCOP(C)(=O)COc1ccc(NC(=O)c2nc(-c3ccc(C)cc3)cnc2N)cc1` (stereo not drawn) [SU20668-0476]: “D (D=<1000%)”; for `CC(=O)NS(=O)(=O)c1ccc(NC(=O)c2nc(-c3cnc(C)nc3)cnc2N)cc1` [SU20668-0369, N-(4-(N-acetylsulfamoyl)phenyl)-3-amino-6-(2-methylpyrimidin-5-yl)pyrazine-2-carboxamide]: “C (C=199-1000%)”.
The same measure, in the same setting: then `COP(=O)(CS(=O)(=O)c1ccc(NC(=O)c2nc(-c3ccc(C)c(O)c3)cnc2N)cc1)OC` [SU20668-0496, dimethyl (4-(3-amino-6-(3-hydroxy-4-methylphenyl)pyrazine-2-carboxamido)phenylsulfonyl)methylphosphonate], with “C (C=199-1000%)”.
